According to BindingDB's records for doi:10.7270/Q2WD3Z10 (Burnham Center For Chemical Genomics, 2010):

molecular target: NACHT, LRR and PYD domains-containing protein 3 (Homo sapiens, UniProt Q96P20); experiment: NALP3 inhibitors in yeast, dose response, luminescent (AID 488799)
Sequence (Q96P20 whole entry, the tested form may be a part): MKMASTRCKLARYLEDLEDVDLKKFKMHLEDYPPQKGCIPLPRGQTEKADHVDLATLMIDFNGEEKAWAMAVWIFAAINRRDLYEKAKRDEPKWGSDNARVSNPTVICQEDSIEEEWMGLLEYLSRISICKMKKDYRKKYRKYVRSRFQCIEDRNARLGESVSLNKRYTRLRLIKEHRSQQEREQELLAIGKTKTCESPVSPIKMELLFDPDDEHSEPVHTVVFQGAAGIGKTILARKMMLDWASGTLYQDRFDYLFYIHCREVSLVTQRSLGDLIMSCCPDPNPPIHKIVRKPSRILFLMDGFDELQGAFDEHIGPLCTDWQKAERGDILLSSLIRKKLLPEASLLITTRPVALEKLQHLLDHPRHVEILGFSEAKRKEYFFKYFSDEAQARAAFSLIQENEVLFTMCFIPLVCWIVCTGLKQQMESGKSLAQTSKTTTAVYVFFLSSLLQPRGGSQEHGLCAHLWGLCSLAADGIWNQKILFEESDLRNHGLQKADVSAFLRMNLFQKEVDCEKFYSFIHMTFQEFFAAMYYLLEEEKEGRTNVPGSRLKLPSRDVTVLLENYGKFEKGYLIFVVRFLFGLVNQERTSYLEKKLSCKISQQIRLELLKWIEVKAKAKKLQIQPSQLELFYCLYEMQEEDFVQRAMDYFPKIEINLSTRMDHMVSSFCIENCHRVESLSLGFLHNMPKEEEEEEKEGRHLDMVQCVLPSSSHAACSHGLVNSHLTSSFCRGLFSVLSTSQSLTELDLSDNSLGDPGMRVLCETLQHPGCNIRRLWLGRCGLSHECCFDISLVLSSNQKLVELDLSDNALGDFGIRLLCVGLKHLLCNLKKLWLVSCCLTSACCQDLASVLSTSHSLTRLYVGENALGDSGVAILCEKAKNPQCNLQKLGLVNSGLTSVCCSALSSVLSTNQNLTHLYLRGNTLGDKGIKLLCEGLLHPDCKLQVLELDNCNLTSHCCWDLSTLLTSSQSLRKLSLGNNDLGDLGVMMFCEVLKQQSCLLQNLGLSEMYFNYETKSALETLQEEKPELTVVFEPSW

| SMILES | IC50 |
| --- | --- |
| Cc1csc2nc(=O)c(C(=O)NCCC3=CCCCC3)c(O)n12 | 4.07 µM |
| C=CCc1c(C)nc(C)nc1N=NCc1ccccc1O [2-[(5-Allyl-2,6-dimethyl-pyrimidin-4-yl)-hydrazonomethyl]-phenol] | 45.5 µM |
| O=C(NCCCc1ccccc1)c1c(O)n2ccsc2nc1=O [5-oxidanyl-7-oxidanylidene-N-(3-phenylpropyl)-[1,3]thiazolo[3,2-a]pyrimidine-6-carboxamide] | 9.61 µM |
| O=C1C=CC(/N=N/c2ccc([N+](=O)[O-])cc2Cl)=CC1C(=O)Nc1cccc(Cl)c1 (stereo unspecified) [(3Z)-3-[(2-chloro-4-nitrophenyl)hydrazinylidene]-N-(3-chlorophenyl)-6-oxocyclohexa-1,4-diene-1-carboxamide] | 1.34 µM |
| CCCCCC(=O)N1CCN(CCNC=C2C(=O)CC(c3ccco3)CC2=O)CC1 (stereo unspecified) [SMR000019406] | 7.3 µM |
| O=C(NCCC1=CCCCC1)c1c(O)n2ccsc2nc1=O [SMR000811826] | 3.8 µM |
